From PMC8222254, “Self-assembly of an anion receptor with metal-dependent kinase inhibition and potent in vitro anti-cancer properties” (Nature Communications, 2021)
Values joined by “and” are separate entries in the source; they are usually repeats but may differ in a detail not shown here. Equal entries are not always repeated.

Tests used:
Assay in all cases: Kinase inhibition screen, cell-free 33P ATP assay at 10 μM
Type in all cases: biochemical
[1] = target: 140 purified human kinases (Homo sapiens, UniProt Q15746); conditions: SmMLCK
140 purified human kinases (Homo sapiens, UniProt Q15746), sequence (Q15746 whole entry): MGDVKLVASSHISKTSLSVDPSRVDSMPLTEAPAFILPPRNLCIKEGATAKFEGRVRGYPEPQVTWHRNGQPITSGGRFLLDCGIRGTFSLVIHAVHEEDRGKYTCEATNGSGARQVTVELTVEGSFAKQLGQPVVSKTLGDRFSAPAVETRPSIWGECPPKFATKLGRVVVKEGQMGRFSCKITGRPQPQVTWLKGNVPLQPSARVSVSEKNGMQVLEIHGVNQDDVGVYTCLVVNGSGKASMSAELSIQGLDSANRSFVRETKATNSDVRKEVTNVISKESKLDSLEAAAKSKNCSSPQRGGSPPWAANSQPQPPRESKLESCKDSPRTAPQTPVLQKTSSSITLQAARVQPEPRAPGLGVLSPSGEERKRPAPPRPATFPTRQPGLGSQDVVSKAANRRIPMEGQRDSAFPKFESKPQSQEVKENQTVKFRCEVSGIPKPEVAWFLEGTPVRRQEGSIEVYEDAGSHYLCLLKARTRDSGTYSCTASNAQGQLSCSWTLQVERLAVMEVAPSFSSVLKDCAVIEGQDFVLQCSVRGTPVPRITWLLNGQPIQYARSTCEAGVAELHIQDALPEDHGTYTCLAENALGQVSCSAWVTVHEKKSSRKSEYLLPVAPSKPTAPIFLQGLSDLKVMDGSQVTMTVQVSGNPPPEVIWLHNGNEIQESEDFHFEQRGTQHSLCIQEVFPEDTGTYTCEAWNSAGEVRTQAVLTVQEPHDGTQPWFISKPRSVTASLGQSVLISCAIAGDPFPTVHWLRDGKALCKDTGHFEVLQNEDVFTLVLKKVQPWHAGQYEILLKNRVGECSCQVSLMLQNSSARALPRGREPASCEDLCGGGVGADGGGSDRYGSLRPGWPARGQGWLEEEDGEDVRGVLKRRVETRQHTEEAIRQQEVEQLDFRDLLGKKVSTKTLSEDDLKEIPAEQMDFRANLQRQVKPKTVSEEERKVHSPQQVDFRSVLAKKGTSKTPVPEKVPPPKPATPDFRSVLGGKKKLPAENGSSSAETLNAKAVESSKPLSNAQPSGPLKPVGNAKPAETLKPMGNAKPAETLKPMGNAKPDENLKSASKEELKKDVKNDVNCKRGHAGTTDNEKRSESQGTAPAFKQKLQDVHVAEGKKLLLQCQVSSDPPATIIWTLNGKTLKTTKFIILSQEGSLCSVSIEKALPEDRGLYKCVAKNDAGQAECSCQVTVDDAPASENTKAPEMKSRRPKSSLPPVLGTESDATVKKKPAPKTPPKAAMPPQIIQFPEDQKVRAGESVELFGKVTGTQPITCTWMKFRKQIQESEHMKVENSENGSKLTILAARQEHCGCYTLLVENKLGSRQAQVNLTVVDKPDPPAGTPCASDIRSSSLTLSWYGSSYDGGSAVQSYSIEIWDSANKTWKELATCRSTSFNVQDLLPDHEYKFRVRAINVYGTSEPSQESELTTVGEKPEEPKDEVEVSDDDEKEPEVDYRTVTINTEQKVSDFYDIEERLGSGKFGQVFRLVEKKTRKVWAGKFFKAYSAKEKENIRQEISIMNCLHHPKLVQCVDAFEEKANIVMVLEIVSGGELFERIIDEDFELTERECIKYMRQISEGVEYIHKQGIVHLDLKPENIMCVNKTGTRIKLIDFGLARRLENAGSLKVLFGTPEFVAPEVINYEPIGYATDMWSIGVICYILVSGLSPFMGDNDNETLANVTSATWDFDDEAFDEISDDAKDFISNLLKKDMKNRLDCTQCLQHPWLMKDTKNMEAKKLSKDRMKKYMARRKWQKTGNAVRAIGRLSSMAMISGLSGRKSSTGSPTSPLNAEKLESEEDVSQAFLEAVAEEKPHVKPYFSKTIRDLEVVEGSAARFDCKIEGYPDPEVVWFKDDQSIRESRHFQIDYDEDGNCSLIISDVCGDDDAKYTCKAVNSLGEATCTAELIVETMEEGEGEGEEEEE
Summary of the method: (§1)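 Each complex tested in duplicate at 10 μM; cell-free radiometric assay using ^33P ATP on purified enzymes. Hits mapped by HGNC symbol onto the kinome tree.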

[2] = target: 140 purified human kinases (Homo sapiens, UniProt P49760)
140 purified human kinases (Homo sapiens, UniProt P49760), sequence (P49760 whole entry): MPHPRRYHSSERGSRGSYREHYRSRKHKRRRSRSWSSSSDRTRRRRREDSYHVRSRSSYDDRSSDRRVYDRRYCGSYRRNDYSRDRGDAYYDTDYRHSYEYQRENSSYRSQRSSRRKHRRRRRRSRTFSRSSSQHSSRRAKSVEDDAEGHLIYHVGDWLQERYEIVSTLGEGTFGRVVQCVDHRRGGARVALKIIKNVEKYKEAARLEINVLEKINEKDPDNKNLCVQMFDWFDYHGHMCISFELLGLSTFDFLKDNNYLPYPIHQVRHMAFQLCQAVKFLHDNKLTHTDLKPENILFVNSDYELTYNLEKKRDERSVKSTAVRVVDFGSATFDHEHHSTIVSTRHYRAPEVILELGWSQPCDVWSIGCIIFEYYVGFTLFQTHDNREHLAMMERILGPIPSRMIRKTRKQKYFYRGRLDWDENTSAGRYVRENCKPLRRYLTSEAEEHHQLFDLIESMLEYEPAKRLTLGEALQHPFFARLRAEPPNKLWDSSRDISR
Summary of the method: as §1

[3] = target: 140 purified human kinases (Homo sapiens, UniProt P41240); conditions: CSK
140 purified human kinases (Homo sapiens, UniProt P41240), sequence (P41240 whole entry): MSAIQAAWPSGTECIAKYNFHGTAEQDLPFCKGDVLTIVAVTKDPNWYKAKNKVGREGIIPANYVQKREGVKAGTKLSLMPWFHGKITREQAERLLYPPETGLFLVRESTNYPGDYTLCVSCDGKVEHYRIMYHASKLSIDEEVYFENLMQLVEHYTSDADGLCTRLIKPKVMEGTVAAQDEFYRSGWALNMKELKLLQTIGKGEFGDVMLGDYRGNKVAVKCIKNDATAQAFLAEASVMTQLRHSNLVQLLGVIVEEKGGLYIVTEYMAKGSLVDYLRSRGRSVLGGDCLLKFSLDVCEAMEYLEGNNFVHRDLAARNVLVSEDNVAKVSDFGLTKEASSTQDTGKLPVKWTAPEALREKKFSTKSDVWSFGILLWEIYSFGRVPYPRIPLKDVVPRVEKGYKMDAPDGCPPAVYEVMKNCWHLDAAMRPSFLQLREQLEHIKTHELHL
Summary of the method: as §1

[4] = target: 140 purified human kinases (Homo sapiens, UniProt Q9Y2K2)
140 purified human kinases (Homo sapiens, UniProt Q9Y2K2), sequence (Q9Y2K2 whole entry): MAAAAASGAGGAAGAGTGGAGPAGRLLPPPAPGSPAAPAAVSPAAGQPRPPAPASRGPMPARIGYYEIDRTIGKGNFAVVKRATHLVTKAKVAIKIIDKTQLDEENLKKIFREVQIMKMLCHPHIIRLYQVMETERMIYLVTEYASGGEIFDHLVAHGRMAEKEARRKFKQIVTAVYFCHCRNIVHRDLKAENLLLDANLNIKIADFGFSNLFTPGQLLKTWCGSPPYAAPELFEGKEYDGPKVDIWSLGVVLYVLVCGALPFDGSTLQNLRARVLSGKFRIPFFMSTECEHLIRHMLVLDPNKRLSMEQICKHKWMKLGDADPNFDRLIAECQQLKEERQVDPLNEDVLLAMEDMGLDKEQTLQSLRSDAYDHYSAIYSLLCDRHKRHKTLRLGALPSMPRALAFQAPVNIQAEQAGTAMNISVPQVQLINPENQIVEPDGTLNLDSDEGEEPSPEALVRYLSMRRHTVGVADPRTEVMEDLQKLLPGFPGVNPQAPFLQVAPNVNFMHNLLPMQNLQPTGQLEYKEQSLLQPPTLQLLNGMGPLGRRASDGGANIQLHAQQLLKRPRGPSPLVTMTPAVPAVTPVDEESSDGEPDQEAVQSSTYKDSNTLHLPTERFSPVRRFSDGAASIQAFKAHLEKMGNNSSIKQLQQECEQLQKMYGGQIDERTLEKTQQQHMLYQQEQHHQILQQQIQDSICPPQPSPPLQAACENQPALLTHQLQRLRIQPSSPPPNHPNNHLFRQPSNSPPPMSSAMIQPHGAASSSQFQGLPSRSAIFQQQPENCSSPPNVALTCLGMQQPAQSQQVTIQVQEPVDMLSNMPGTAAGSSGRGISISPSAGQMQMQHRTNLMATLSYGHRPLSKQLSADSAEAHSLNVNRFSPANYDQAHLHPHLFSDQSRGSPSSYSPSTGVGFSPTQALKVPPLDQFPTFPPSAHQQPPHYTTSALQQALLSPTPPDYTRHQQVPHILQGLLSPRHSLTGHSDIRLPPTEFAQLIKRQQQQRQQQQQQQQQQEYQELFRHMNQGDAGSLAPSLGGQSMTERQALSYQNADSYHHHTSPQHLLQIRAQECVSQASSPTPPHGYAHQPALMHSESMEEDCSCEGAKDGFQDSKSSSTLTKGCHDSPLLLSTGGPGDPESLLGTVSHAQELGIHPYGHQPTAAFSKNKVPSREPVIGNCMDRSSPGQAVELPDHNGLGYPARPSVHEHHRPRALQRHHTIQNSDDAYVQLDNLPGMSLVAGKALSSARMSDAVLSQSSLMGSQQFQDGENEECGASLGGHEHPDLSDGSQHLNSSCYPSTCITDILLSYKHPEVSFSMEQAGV
Summary of the method: as §1

[5] = target: 140 purified human kinases (Homo sapiens, UniProt P45983)
140 purified human kinases (Homo sapiens, UniProt P45983), sequence (P45983 whole entry): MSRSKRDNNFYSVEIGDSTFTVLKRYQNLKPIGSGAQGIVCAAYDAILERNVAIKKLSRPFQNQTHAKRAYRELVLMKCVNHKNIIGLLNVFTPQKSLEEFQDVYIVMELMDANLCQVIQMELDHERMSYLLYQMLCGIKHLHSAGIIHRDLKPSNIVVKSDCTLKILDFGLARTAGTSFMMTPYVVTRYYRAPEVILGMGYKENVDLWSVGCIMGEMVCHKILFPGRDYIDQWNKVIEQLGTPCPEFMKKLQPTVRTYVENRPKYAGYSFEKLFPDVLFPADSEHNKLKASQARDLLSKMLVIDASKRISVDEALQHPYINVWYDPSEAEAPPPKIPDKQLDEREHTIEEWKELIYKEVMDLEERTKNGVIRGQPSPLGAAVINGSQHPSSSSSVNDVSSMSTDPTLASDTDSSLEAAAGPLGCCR
Summary of the method: as §1

[6] = target: 140 purified human kinases (Homo sapiens, UniProt P49841); conditions: GSK3b
140 purified human kinases (Homo sapiens, UniProt P49841), sequence (P49841 whole entry): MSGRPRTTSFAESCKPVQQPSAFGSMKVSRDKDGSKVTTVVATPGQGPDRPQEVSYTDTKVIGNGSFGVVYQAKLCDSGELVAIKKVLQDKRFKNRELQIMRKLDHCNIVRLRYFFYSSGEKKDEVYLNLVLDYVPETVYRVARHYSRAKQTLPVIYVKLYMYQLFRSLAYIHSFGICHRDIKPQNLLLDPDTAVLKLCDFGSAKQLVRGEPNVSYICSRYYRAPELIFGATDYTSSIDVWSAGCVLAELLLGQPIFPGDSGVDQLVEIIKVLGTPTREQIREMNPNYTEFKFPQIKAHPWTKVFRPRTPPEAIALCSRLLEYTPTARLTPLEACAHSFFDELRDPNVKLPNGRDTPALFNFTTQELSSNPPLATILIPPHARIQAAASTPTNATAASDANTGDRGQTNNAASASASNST
Summary of the method: as §1

[7] = target: T1, 140 purified human kinases (Homo sapiens, UniProt Q13188)
T1 sequence (Q13188 1-491): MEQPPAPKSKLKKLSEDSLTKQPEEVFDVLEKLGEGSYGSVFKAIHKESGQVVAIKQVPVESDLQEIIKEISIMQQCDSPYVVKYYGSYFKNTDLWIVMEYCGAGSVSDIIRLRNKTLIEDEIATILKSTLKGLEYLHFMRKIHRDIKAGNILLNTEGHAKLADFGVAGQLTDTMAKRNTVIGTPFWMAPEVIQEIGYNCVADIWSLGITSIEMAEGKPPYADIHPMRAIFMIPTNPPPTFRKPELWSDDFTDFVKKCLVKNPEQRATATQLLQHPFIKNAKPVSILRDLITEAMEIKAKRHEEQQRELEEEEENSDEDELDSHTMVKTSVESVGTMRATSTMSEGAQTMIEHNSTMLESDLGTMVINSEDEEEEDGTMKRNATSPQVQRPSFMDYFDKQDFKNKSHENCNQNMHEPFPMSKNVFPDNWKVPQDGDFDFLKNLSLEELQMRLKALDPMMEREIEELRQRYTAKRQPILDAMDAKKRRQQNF
Summary of the method: as §1

[8] = target: 140 purified human kinases (Homo sapiens, UniProt O75116); conditions: ROCK 2
Summary of the method: as §1

[9] = target: 140 purified human kinases (Homo sapiens, UniProt Q96RR4); conditions: CAMKKb
Summary of the method: as §1

[10] = target: T2, 140 purified human kinases (Homo sapiens, UniProt Q12851); conditions: GCK
T2 sequence (Q12851 1-820): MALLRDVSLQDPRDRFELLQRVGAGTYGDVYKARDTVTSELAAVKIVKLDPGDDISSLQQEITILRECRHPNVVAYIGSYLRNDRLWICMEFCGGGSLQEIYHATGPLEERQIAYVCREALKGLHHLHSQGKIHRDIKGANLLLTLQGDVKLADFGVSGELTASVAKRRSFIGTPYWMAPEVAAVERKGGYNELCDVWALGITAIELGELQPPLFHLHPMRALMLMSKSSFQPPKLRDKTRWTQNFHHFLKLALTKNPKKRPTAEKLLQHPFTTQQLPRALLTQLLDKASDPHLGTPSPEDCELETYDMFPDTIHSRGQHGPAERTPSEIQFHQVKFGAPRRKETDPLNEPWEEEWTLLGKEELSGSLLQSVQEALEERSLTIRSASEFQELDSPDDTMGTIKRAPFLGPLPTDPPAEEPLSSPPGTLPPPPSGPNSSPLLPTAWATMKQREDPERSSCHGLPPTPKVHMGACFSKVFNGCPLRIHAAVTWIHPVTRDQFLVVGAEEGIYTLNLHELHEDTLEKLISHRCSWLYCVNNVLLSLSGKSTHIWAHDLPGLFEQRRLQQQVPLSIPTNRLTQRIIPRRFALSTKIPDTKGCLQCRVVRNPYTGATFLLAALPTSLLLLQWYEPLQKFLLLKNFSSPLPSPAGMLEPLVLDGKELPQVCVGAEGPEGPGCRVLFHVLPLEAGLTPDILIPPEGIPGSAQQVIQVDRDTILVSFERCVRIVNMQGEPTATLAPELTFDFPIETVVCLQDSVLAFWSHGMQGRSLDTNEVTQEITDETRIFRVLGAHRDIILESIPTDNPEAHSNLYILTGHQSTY
Summary of the method: as §1

[11] = target: 140 purified human kinases (Homo sapiens, UniProt Q16513)
Summary of the method: as §1

[Cu+2].[Cu+2].[Cu+2].c1ccc(-c2csc(NCCN(CCNc3nc(-c4ccccn4)cs3)CCNc3nc(-c4ccccn4)cs3)n2)nc1.c1ccc(-c2csc(NCCN(CCNc3nc(-c4ccccn4)cs3)CCNc3nc(-c4ccccn4)cs3)n2)nc1 [[L2Cu3]6+]
% Inhibition Run 1 [1]: 59.8%
% Inhibition Run 2 [1]: 52.2%
% Inhibition, Mean [1]: 56%
mean % activity [1]: 44%
% activity ([1]; Run 1): 40.2%
% activity ([1]; Run 2): 47.8%
% Activation, Mean value ([2]; CLK2): 3%
% Inhibition Run 1 ([2]; CLK2): -9.8%
% Inhibition Run 2 ([2]; CLK2): 3.9%
% Inhibition, Mean ([2]; CLK2): -3%
mean % activity ([2]; CLK2): 103%
% activity ([2]; CLK2, Run 1): 109.8%
% activity ([2]; CLK2, Run 2): 96.1%
% Inhibition Run 1 [3]: 11.5%
% Inhibition Run 2 [3]: 10.8%
% Inhibition, Mean [3]: 11%
mean % activity [3]: 89%
% activity ([3]; Run 1): 88.5%
% activity ([3]; Run 2): 89.2%
% Inhibition Run 1 ([4]; SIK3): 48.7%
% Inhibition Run 2 ([4]; SIK3): 52.1%
% Inhibition, Mean ([4]; SIK3): 50%
mean % activity ([4]; SIK3): 50%
% activity ([4]; SIK3, Run 1): 51.3%
% activity ([4]; SIK3, Run 2): 47.9%
% Inhibition Run 1 ([5]; JNK1): 20.4%
% Inhibition Run 2 ([5]; JNK1): 5.8%
% Inhibition, Mean ([5]; JNK1): 13%
mean % activity ([5]; JNK1): 87%
% activity ([5]; JNK1, Run 1): 79.6%
% activity ([5]; JNK1, Run 2): 94.2%
% Inhibition Run 1 [6]: 28.4%
% Inhibition Run 2 [6]: 32.5%
% Inhibition, Mean [6]: 30%
mean % activity [6]: 70%
% activity ([6]; Run 1): 71.6%
% activity ([6]; Run 2): 67.5%
% Inhibition Run 1 ([7]; MST2): 38.8%
% Inhibition Run 2 ([7]; MST2): 41.9%
% Inhibition, Mean ([7]; MST2): 40%
mean % activity ([7]; MST2): 60%
% activity ([7]; MST2, Run 1): 61.2%
% activity ([7]; MST2, Run 2): 58.1%
% Inhibition Run 1 [8]: 83.5%
% Inhibition Run 2 [8]: 77.5%
% Inhibition, Mean [8]: 81%
mean % activity [8]: 20%
% Inhibition Run 1 [9]: 42.1%
% Inhibition Run 2 [9]: 54.8%
% Inhibition, Mean [9]: 48%
mean % activity [9]: 52%
% activity ([9]; Run 1): 57.9%
% activity ([9]; Run 2): 45.2%
% Inhibition Run 1 [10]: 83.9%
% Inhibition Run 2 [10]: 84.3%
% Inhibition, Mean [10]: 84%
mean % activity [10]: 16%
% activity ([10]; Run 1): 16.1%
% activity ([10]; Run 2): 15.7%
% Inhibition Run 1 ([11]; PRK2): 87.9%
% Inhibition Run 2 ([11]; PRK2): 85.6%
% Inhibition, Mean ([11]; PRK2): 87%
mean % activity ([11]; PRK2): 13%
% activity ([11]; PRK2, Run 1): 12.1%
% activity ([11]; PRK2, Run 2): 14.4%

CC(=O)[O-].CC(=O)[O-].CC(=O)[O-].CC(=O)[O-].CC(=O)[O-].CC(=O)[O-].[Zn+2].[Zn+2].[Zn+2].c1ccc(-c2csc(NCCN(CCNc3nc(-c4ccccn4)cs3)CCNc3nc(-c4ccccn4)cs3)n2)nc1.c1ccc(-c2csc(NCCN(CCNc3nc(-c4ccccn4)cs3)CCNc3nc(-c4ccccn4)cs3)n2)nc1 [[L2Zn3]6+]
% Inhibition, Mean [1]: 3.75%
mean % activity [1]: 96%
% activity ([1]; duplicate runs): 76% and 117%
% Inhibition, Mean ([2]; CLK2): 44%
% Inhibition, Run 1 / Run 2 ([2]; CLK2): 43% and 45%
mean % activity ([2]; CLK2): 56%
% activity ([2]; CLK2, duplicate runs): 57% and 55%
% Inhibition, Mean [3]: 8%
mean % activity [3]: 92%
% activity ([3]; duplicate runs): 82% and 102%
% Inhibition, Mean ([4]; SIK3): 39%
% Inhibition, Run 1 / Run 2 ([4]; SIK3): 45% and 33%
mean % activity ([4]; SIK3): 61%
% activity ([4]; SIK3, duplicate runs): 55% and 67%
% Inhibition, Mean ([5]; JNK1): 5%
mean % activity ([5]; JNK1): 95%
% activity ([5]; JNK1, duplicate runs): 88% and 102%
% Inhibition, Mean [6]: 16%
% Inhibition, Run 1 / Run 2 [6]: 20% and 11%
mean % activity [6]: 84%
% activity ([6]; duplicate runs): 80% and 89%
% Inhibition, Mean ([7]; MST2): 10%
% Inhibition, Run 1 / Run 2 ([7]; MST2): 14% and 6%
mean % activity ([7]; MST2): 90%
% activity ([7]; MST2, duplicate runs): 86% and 94%
% Activation, Mean value [8]: 17%
% Inhibition, Mean [8]: -17%
% Inhibition, Run 1 / Run 2 [8]: -20% and -14%
mean % activity [8]: 117%
% Activity Run 1 ([8]; 10 µM): 120.0%
% Activity Run 2 ([8]; 10 µM): 114.0%
% activity ([8]; duplicate runs): 120% and 114%
% Inhibition, Mean [9]: 44%
% Inhibition, Run 1 / Run 2 [9]: 44%
mean % activity [9]: 56%
% activity ([9]; duplicate runs): 57% and 56%
% Inhibition, Mean [10]: 83%
% Inhibition, Run 1 / Run 2 [10]: 88% and 78%
mean % activity [10]: 17%
% Activity inhibition Mean ([10]; 10 µM): 83.0%
% Activity inhibition Run 1 ([10]; 10 µM): 88%
% Activity inhibition Run 2 ([10]; 10 µM): 78%
% Activity remaining Run 1 ([10]; 10 µM): 12%
% Activity remaining Run 2 ([10]; 10 µM): 22%
% activity ([10]; duplicate runs): 12% and 22%
% Inhibition, Mean ([11]; PRK2): 71%
% Inhibition, Run 1 / Run 2 ([11]; PRK2): 77% and 65%
mean % activity ([11]; PRK2): 29%
% activity ([11]; PRK2, duplicate runs): 23% and 35%
